The source made the active and inactive calls. The rule behind the calls is not given here.
Key:
[1] = Induction of H2S release in 10% PBS:MeCN solution at 0.5 mM incubated at 22 degC in dark condition measured at 48 hrs by 2, 6-dansyl azide probed-based fluorescence assay relative to control; format: physicochemical; settings: buffer, 500 µM
[2] = Induction of H2S release in 10% PBS:MeCN solution at 0.5 mM incubated at 37 degC in dark condition measured at 48 hrs by 1 mM 2, 6-dansyl azide probed-based fluorescence assay relative to control; format: physicochemical; settings: buffer, 500 µM
[3] = Induction of H2S release in 10% PBS:MeCN solution assessed as ratio of H2S level at 37 degC to H2S level at 22 degC at 0.5 mM incubated in dark condition measured at 96 hrs by 2, 6-dansyl azide probed-based fluorescence assay; format: physicochemical; settings: buffer, 500 µM
[4] = Induction of H2S release in 10% PBS:MeCN solution at 0.5 mM incubated at 22 degC in dark condition measured at 48 hrs by 2, 6-dansyl azide probed-based fluorescence assay relative to 12 uM of GYY4137; format: physicochemical; settings: buffer, 500 µM
[5] = Induction of H2S release in 10% PBS:MeCN solution at 0.5 mM incubated at 37 degC in dark condition measured at 48 hrs by 2, 6-dansyl azide probed-based fluorescence assay relative to 6.9 uM of GYY4137; format: physicochemical; settings: buffer, 500 µM
[6] = system: MCF7; assay: Cytotoxicity against human MCF7 cells assessed as inhibition of cell proliferation after 4 days by crystal violet assay; format: functional, cell-based; settings: MCF7, 96 h
[7] = system: SK-OV-3; assay: Cytotoxicity against human SKOV3 cells assessed as inhibition of cell proliferation after 4 days by crystal violet assay; format: functional, cell-based; settings: SK-OV-3, 96 h
[8] = Toxicity in human WI38 cells assessed as inhibition of cell proliferation after 4 days by crystal violet assay
[9] = Therapeutic index, ratio of IC50 for human WI38 cells to IC50 for human MCF7 cells; settings: WI38 cells and MCF7 cells
[10] = Therapeutic index, ratio of IC50 for human WI38 cells to IC50 for human SKOV3 cells; settings: WI38 cells and SKOV3 cells
[11] = Therapeutic index, ratio of IC50 for human WI38 cells to IC50 for human MBA-MD-231 cells; settings: WI38 cells and MBA-MD-231 cells
[12] = Therapeutic index, ratio of IC50 for human WI38 cells to IC50 for human PC3 cells; settings: WI38 cells and PC3 cells
[13] = Toxicity in transforming growth factor alpha transgenic mouse hepatocytes assessed as inhibition of cell proliferation after 24 hrs by CellTiter-Glo cell viability assay; format: cell-based, Hepatocyte
[14] = Toxicity in human AC10 cells assessed as inhibition of cell proliferation at 100 uM after 24 hrs by CellTiter-Glo cell viability assay relative to control; format: cell-based
[15] = Induction of H2S release in 10% PBS:MeCN solution at 5 mM incubated at 22 degC in dark condition measured at 96 hrs by 2, 6-dansyl azide probed-based fluorescence assay relative to control; settings: buffer, 5000 µM
[16] = Induction of H2S release in 10% PBS:MeCN solution at 5 mM incubated at 37 degC in dark condition measured at 96 hrs by 1 mM 2, 6-dansyl azide probed-based fluorescence assay relative to control; settings: buffer, 5000 µM
[17] = Induction of H2S release in 10% PBS:MeCN solution assessed as ratio of H2S level at 37 degC to H2S level at 22 degC at 5 mM incubated in dark condition measured at 96 hrs by 2, 6-dansyl azide probed-based fluorescence assay; settings: buffer, 5000 µM
[18] = Induction of H2S release in 10% PBS:MeCN solution at 5 mM incubated at 22 degC in dark condition measured at 96 hrs by 2, 6-dansyl azide probed-based fluorescence assay relative to GYY4137; format: physicochemical; settings: buffer, 5000 µM
[19] = Induction of H2S release in 10% PBS:MeCN solution at 5 mM incubated at 37 degC in dark condition measured at 96 hrs by 2, 6-dansyl azide probed-based fluorescence assay relative to GYY4137; format: physicochemical; settings: buffer, 5000 µM
[20] = system: MCF7; assay: cells; format: functional, cell-based; settings: Homo sapiens, MCF7, 72 h
Description: Cytotoxicity against human MCF7 cells assessed as inhibition of cell proliferation after 72 hrs by MTT assay

[21] = system: MDA-MB-231; assay: cells; format: functional, cell-based; settings: Homo sapiens, MDA-MB-231, 72 h
Description: Cytotoxicity against human MDA-MB-231 cells assessed as inhibition of cell proliferation after 72 hrs by MTS assay

[22] = system: PC-3; assay: cells; format: functional, cell-based; settings: Homo sapiens, PC-3, 72 h
Description: Cytotoxicity against human PC3 cells assessed as inhibition of cell proliferation after 72 hrs by MTT assay

[23] = Induction of H2S release in aqueous acetonitrile solution at 200 uM measured over 4 days by probe 21-based fluorescence assay; settings: buffer, 96 h
[24] = Induction of H2S release in aqueous acetonitrile solution at 400 uM measured over 4 days by probe 21-based fluorescence assay; settings: buffer, 96 h
[25] = Toxicity in human AC10 cells assessed as inhibition of cell proliferation after 24 hrs by CellTiter-Glo cell viability assay; format: cell-based
[26] = system: Salmonella typhi; assay: Genotoxicity in Salmonella […] TA98 at 10 to 100 ug/plate after 48 hrs by Ames test in presence of S9 fraction; format: toxicity, organism-based; settings: salmonella enterica subsp. enterica serovar […], s9, 48 h
[27] = system: Salmonella typhi; assay: Genotoxicity in Salmonella […] TA100 at 10 to 100 ug/plate after 48 hrs by Ames test in presence of S9 fraction; format: toxicity, organism-based; settings: salmonella enterica subsp. enterica serovar […], s9, 48 h
[28] = system: Salmonella typhi; assay: Genotoxicity in Salmonella […] TA98 at 10 to 100 ug/plate after 48 hrs by Ames test in absence of S9 fraction; format: toxicity, organism-based; settings: salmonella enterica subsp. enterica serovar […]
[29] = system: Salmonella typhi; assay: Genotoxicity in Salmonella […] TA100 at 10 to 100 ug/plate after 48 hrs by Ames test in absence of S9 fraction; format: toxicity, organism-based; settings: salmonella enterica subsp. enterica serovar […]
[30] = Effective permeability of the compound at 500 uM after 6 hrs by PAMPA; settings: PAMPA
[31] = Effective permeability of the compound at 500 uM after 16 hrs by PAMPA
[32] = system: MCF7; assay: Reduction of intracellular pH in human MCF7 cells at 50 uM after 48 hrs by BCECF-AM staining-based confocal microscopic analysis; format: functional
[33] = system: MCF7; assay: Induction of H2S release in human MCF7 cells at 200 uM measured at 6 hrs by probe 21-based fluorescence assay; format: functional
[34] = system: MCF7; assay: Induction of H2S release in human MCF7 cells at 400 uM measured at 6 hrs by probe 21-based fluorescence assay; format: functional
[35] = system: MCF7; assay: Induction of H2S release in human MCF7 cells at 200 uM measured at 24 hrs by probe 21-based fluorescence assay; format: functional
[36] = system: MCF7; assay: Induction of H2S release in human MCF7 cells at 400 uM measured at 24 hrs by probe 21-based fluorescence assay; format: functional
[37] = system: MCF7; assay: Induction of H2S release in human MCF7 cells at 400 uM after 5 hrs by probe 21-based confocal fluorescence microscopic analysis; format: functional, cell-based
[38] = physchem; settings: DMSO, pH 7.4
Description: Kinetic solubility of the compound in DMSO at pH 7.4 measured at 3 hrs by multiscreen filter paper-based UV absorbance analysis

[39] = physchem; settings: DMSO, pH 7.4; remark: listed apart in the source
Description: Kinetic solubility of the compound in DMSO at pH 7.4 measured at 24 hrs by multiscreen filter paper-based UV absorbance analysis

[40] = system: Hepatocyte; assay: Toxicity in transforming growth factor alpha transgenic mouse hepatocytes at 100 uM after 24 hrs by CellTiter-Glo cell viability assay; format: cell-based
[41] = Induction of H2S release in 10% PBS:MeCN solution at 5 mM incubated at 37 degC in dark condition measured at 96 hrs by 0.2 mM 2, 6-dansyl azide probed-based fluorescence assay relative to control; format: physicochemical; settings: buffer, 5000 µM

Row | Structure (SMILES) | IC50 [6] | IC50 [7] | IC50 at 4 days [8] | selectivity ratio [9] | selectivity ratio [10] | selectivity ratio [11] | selectivity ratio [12] | %max [15] | %max [16] | Ratio [17] | fold change (FC) [18] | fold change (FC) [19] | IC50 [20] | IC50 [21] | IC50 [22] | Activity [23] | Activity [24] | Papp at 6 h, 500 µM [30] | Papp at 16 h, 500 µM [31] | solubility kinetic at 3 h [38] | other results
1 | C1CSCCN1.S=P(S)(N1CCSCC1)N1CCSCC1 | 20.4 µM | 15.8 µM | 30.4 µM | 1.5 | 1.5 | 1.5 | 1.5 |  |  |  |  |  |  |  |  |  |  |  |  |  | %max [1]: 48.5%; %max [2]: 62.6%; Ratio [3]: 1.3; fold change (FC) [4]: 40; fold change (FC) [5]: 90.7; IC50 at 24 h [13]: 120 µM; inhibition at 24 h, 100 µM [14]: 35.6%
2 | COc1ccc(P(=S)(S)NCc2ccccc2)cc1.NCc1ccccc1 (stereo not given) | 84.2 µM | 89.9 µM | 208 µM | 2.3 | 2.3 | 2.3 | 2.3 | 2.19% | 5.07% | 2.3 | 1.5 | 0.8 | 82.4 µM | 41.1 µM | 31.9 µM | 5.55 µM | 10.29 µM |  |  |  | 
3 | NCc1ccccc1.S=P(S)(NCc1ccccc1)c1ccc(Oc2ccccc2)cc1 (stereo not given) | 36.3 µM | 47 µM | 104 µM | 1.5 | 1.5 | 1.5 | 1.5 | 1.28% | 2.81% | 2.2 | 0.9 | 0.5 | 67.6 µM | 55.4 µM | 45.6 µM | 9.03 µM | 17.19 µM | 0.19 ×10⁻⁶ cm/s | 0.97 ×10⁻⁶ cm/s | 200 µg/mL | IC50 at 24 h [13]: 23.5 µM; IC50 at 24 h [25]: 62.6 µM; Activity [26]: Non-toxic; Activity [27]: Non-toxic; Activity [28]: Non-toxic; Activity [29]: Non-toxic; pH [32]: 6.75; Activity [33]: 41.5 µM; Activity [34]: 48.2 µM; Activity [35]: 93.4 µM; Activity [36]: 74.6 µM; Activity [37]: Active; solubility kinetic at 24 h [39]: 180 µg/mL
4 | C1COCCN1.S=P(S)(N1CCOCC1)N1CCOCC1 | 221 µM | 267 µM | 683 µM | 2.6 | 2.6 | 2.6 | 2.6 |  |  |  |  |  | 331 µM | 381 µM |  |  |  |  |  |  | %max [1]: 67.2%; %max [2]: 76.2%; Ratio [3]: 1.1; fold change (FC) [4]: 56; fold change (FC) [5]: 110.4; Activity [40]: Non-toxic
5 | CCNCCOP(=S)(S)c1ccc(OC)cc1 (stereo not given) | > 400 µM | > 400 µM |  |  |  |  |  | < 0.01% |  |  |  | < 0.1 | 481 µM | > 500 µM |  |  |  | 0.013 ×10⁻⁶ cm/s | 0.0041 ×10⁻⁶ cm/s | > 290 µg/mL | %max [41]: 0.03%; solubility kinetic at 24 h [39]: > 290 µg/mL
6 | C1COCCN1.CC(C)OP(=S)(S)c1ccc(Oc2ccccc2)cc1 (stereo not given) | 51.4 µM | 50.2 µM | 72.8 µM | 1.4 | 1.4 | 1.4 | 1.4 | 0.06% |  | 2.6 | < 0.1 | < 0.1 | 178 µM | 94.8 µM | 50.8 µM |  |  | 0.0066 ×10⁻⁶ cm/s | 0.0051 ×10⁻⁶ cm/s | > 400 µg/mL | %max [41]: 0.15%; inhibition at 24 h, 100 µM [14]: 28.6%; solubility kinetic at 24 h [39]: > 400 µg/mL
7 | C1COCCN1.S=P(S)(c1ccc(Oc2ccccc2)cc1)N1CCOCC1 (stereo not given) | 195 µM | 326 µM | 656 µM | 2 | 2 | 2 | 2 | 1.68% | 5.54% | 3.3 | 1.2 | 0.9 | 163 µM | 95.2 µM | 102 µM | 4.14 µM | 5.47 µM | 0.015 ×10⁻⁶ cm/s | 0.013 ×10⁻⁶ cm/s |  | Activity [40]: Non-toxic
